{
  "source": "BindingDB's records for patent US10766864",
  "about": "(Nektar Therapeutics, 2020)",
  "biological_target": "Mu-type opioid receptor (Homo sapiens, UniProt P35372)",
  "sequence (P35372 whole entry)": "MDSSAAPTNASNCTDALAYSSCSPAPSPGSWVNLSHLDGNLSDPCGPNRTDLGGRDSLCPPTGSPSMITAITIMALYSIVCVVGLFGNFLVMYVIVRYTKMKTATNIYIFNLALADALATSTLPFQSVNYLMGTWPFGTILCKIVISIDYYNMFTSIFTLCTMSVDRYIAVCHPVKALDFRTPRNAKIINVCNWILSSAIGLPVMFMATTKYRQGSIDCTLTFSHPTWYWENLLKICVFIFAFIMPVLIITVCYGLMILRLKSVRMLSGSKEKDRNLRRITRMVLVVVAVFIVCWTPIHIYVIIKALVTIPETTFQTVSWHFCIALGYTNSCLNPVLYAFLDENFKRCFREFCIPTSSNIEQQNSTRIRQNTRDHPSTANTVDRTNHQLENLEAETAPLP",
  "assay": "Receptor Binding Assay",
  "procedure": "Affinities of various compounds were measured in vitro using competitive radioligand binding assays. Serial dilutions of test compounds were incubated with membranes prepared from CHO-K1 cells expressing the mu opioid receptor (MOR; for opioid receptor binding) or rat forebrain membranes (for NMDA receptor binding). 2 nM [3H] Naloxone (MOR) or 0.2 nM [3H] MK801 (NMDA) were used as the specific, competitive radioligands. 10 uM Naloxone (MOR), or 10 uM MK801 (NMDA) was used to determine non-specific binding. Bound radioactivity was measured using a scintillation counter & IC50 values for test compounds were determined by non-linear regression analysis using a one-site competition model (Graph Pad Prizm). Due to each test compound being solubilized in a buffered system for the assay, the results presented herein reflect the free base activity.",
  "data": [
    {"compound": "COCCOCCN1CC[C@]23CCCC[C@H]2[C@H]1Cc1cc2sc(N)nc2cc13", "note": "[US10766864, Example 97]", "values": [
      {"measurement": "IC50", "value": "> 1", "unit": "µM"}
    ]}
  ]
}
